Patent publication US20150148304A1, “Novel Peptides and Analogs for Use in the Treatment of Macrophage Activation Syndrome” (Soligenix, Inc., priority 2013, published 2015)
No end group written: not given here.

What was measured:
[1] = system: battery of CNS receptors and ion channels; assay: interaction with a battery of CNS receptors and ion channels in vitro; type: binding
Procedure: No effects of RIVPA (SEQ ID NO. 5) have been observed on the central nervous system (CNS) in any study at any dose level and little or no radiolabelled RIVPA (SEQ ID NO. 5) was found in the mouse CNS at dose levels of either 20 or 90 mg/kg.

[2] = toxicology and PK studies in mice with alternate routes of administration; settings: mouse, in vivo, other: intraperitoneal or subcutaneous
[3] = Phase 1 study in healthy volunteers, pharmacokinetics; type: in vivo, human
From the text: Following IV administration in human subjects and consistent with findings in animal studies, RIVPA (SEQ ID NO. 5) is cleared from the circulation within minutes. […] Following the rapid decline, a slower elimination phase was observed. […] Maximum plasma concentrations and total exposure levels were dose-proportional and clearance of RIVPA (SEQ ID NO. 5) from the circulation was rapid, consistent with the mouse and NHP experience.
In light of the high clearance and short elimination half-life, accumulation following daily injection was not expected to occur.

[4] = GLP 14-day repeat-dose IV toxicity study in cynomolgus monkeys; type: in vivo
Procedure: Two pilot and 2 definitive repeat-dose toxicity studies were conducted with RIVPA (SEQ ID NO. 5) in mice and cynomolgus monkeys using the intravenous (IV; slow bolus) route of administration.
RIVPA (SEQ ID NO. 5) at 20, 80, 160 mg/kg/day was given IV to cynomolgus monkeys for 14 days. […] In all cases, these clinical signs resolved within a few minutes. […] A dose level of 80 mg/kg/day was considered to be the No-Observed-Adverse-Effect-Level (NOAEL) for this study.
Overall, the NOAEL is considered to be 80 mg/kg/day for cynomolgus monkeys since transient clinical signs were limited to a single study and occurred in only 2 instances of the 98 administrations of the drug at this dose level.
In the latter study, no effect on T-cell, B-cell or NK-cell counts was observed after 14 days of intravenous RIVPA (SEQ ID NO. 5) dosing in the NHP. […] Collectively, there is no indication of a potential for RIVPA (SEQ ID NO. 5) to cause immunotoxicity or non-specific immune activation. No hyperactivation or suppression of adaptive immune responses, or other impact on the phenotypes of cells associated with adaptive immunity, has been detected following RIVPA (SEQ ID NO. 5) administration.

[5] = Phase 1 study in healthy volunteers, safety (SAD and MAD phases); type: in vivo, human
From the text: Clinical experience with RIVPA (SEQ ID NO. 5) was obtained in a Phase 1 Study. The primary objective of the study was to determine the maximum tolerated dose (MTD) of single and repeat ascending doses of RIVPA (SEQ ID NO. 5) injectable solution following IV administration in healthy volunteers. The secondary objectives of this study included the assessment of the dose limiting toxicity (DLT), safety, PK and pharmacodynamic (PD) profiles of RIVPA (SEQ ID NO. 5) after single and repeated ascending IV doses of RIVPA (SEQ ID NO. 5). The study was divided into 2 phases: a single-ascending dose (SAD) phase and a multiple-ascending dose (MAD) phase.
Single IV doses of RIVPA (SEQ ID NO. 5) were well tolerated up to the maximum tested (8 mg/kg) and daily IV doses were well tolerated up to the maximum tested (6.5 mg/kg for 7 days). There were no dose limiting toxicities (DLTs) and the MTD was not reached in either phase of the trial. There were no deaths and no clinically significant, severe, or serious Adverse Events (AEs) reported during the study.
The most frequently reported TEAEs (observed in more than one subject who received RIVPA (SEQ ID NO. 5) and in a higher proportion (%) than placebo subjects) were study treatment procedure-related events (General Disorders and Administration Site Conditions) such as vessel puncture site haematoma, vessel puncture site reaction and vessel puncture site pain. All vessel puncture-related events were mild and determined to be unrelated to study treatment by the QI. The second most frequently reported TEAEs were Nervous System Disorders, specifically headache and dizziness; these events were only mild to moderate. All other TEAEs were reported by only 1 subject at any given dose level (maximum of 3 dose levels).
The incidence of “possibly-related” events was also higher in the 2 highest dose levels. However, due to the small sample sizes (4 subjects received active treatment in each cohort), it was not possible to conclude whether the results definitely represented a dose-response. The majority of the TEAEs were not related to study treatment and were mild in severity with only one event reported as moderate. The most frequently reported TEAEs for subjects who received RIVPA (SEQ ID NO. 5) were General Disorders and Administration Site Conditions (i.e., procedure-related events) such as vessel puncture site haematoma, vessel puncture site reaction, and vessel puncture site pain. All vessel puncture-related events were mild and judged to be unrelated to treatment. Increased alanine aminotransferase (ALT) and back pain were reported by 3 (15.0%) subjects who received RIVPA (SEQ ID NO. 5) and these events were observed by only one (10.0%) subject who received the placebo.

[6] = system: macrophage activation syndrome model; assay: CpG (TLR-9 agonist) induced model of macrophage activation syndrome; type: in vivo, C57BL/6 mice
Procedure: Macrophage activation syndrome was simulated in 8-10 week old C57BL/6 mice by repeated administration of the TLR-9 agonist, CpG. CpG (35 μg in 200 μL) or Saline was administered intraperitoneally (IP) on days 0, 2, 4, 7 and 9. SGX94 (200 mg/kg IP) or Saline was administered on days 1, 4 and 7. […] In a repeat study, the same model was used to test administration of saline (Days 1, 4 and 7; control); RIVPA (SEQ ID NO. 5) at 200 mg/kg administered on Days 1, 4 and 7, 400 mg/kg administered on Day 1, 4 and 7 and 400 mg/kg administered on Days 1; 3, 5 and 7. In this experiment CpG (35 μg) was administered on days 0, 2, 4, 7 and 10 and no saline-stimulated controls were used.

human normal blood cells = assay: proliferation of normal blood cells in vitro (human); type: cell-based
[7] = Day 8, 200 mg/kg IP days 1, 4 and 7, relative to CpG stimulated, saline treated group
[8] = Day 10, serum, 200 mg/kg IP, first study
[9] = repeat study, 200 mg/kg Days 1, 4, 7, 400 mg/kg Days 1, 4, 7, 400 mg/kg Days 1, 3, 5, 7

RIVPA-NH2 [RIVPA, L-arginyl-L-isoleucyl-L-valyl-L-prolyl-L-alanine-amide]
interaction with CNS receptors and ion channels [1]: No interaction was detected
NOAEL [2]: > 200 mg/kg
pre-dose concentrations on Days 5, 6, 7 and Day 8 ([3]; daily IV for 7 days, all subjects): below the lower limit of quantitation
Tmax ([3]; human, plasma, intravenous, after start of infusion, dose range 0.15 mg/kg to 8 mg/kg, read-out: mean time of maximum concentration (Tmax)): 4 to 4.8 min
time after start of infusion for plasma levels to decrease to less than 10 percent of Cmax ([3]; single-dose phase, 4-minute IV infusion): ≤ 9 min
maximum plasma concentrations and total exposure levels versus dose ([3]; single-dose phase, IV): dose-proportional
clinical signs at 160 mg/kg ([4]; 160 mg/kg/day IV for 14 days, cynomolgus monkeys, during and shortly after dosing): Transient decreased activity and partially closed eyes
toxicity at 20 and 80 mg/kg/day ([4]; 20 and 80 mg/kg/day IV for 14 days, cynomolgus monkeys): did not result in any evidence of toxicity
immune-related organ weights, histopathology, hematology and clinical chemistry ([4]; NHP 14-day toxicity study): no changes were observed
T-cell, B-cell or NK-cell counts ([4]; after 14 days of intravenous dosing in the NHP): no effect
NOAEL at 14 days ([4]; cynomolgus monkey, in vivo, IV for 14 days, cynomolgus monkeys, read-out: No-Observed-Adverse-Effect-Level (NOAEL) for this study): 80 mg/kg/day
overall NOAEL for cynomolgus monkeys ([4]; overall across studies, IV): 80 mg/kg/day
subjects reporting increased alanine aminotransferase (ALT) and back pain ([5]; MAD phase, placebo one (10.0%) subject): 3 (15.0%) subjects
MTD in humans ([5]; either phase of the trial, no DLTs): not reached
single IV dose well tolerated up to the maximum tested ([5]; healthy volunteers, SAD phase): 8 mg/kg
daily IV dose well tolerated up to the maximum tested ([5]; healthy volunteers, daily for 7 days, MAD phase): 6.5 mg/kg
platelet counts [6, 7]: increased
white blood cell counts [6, 7]: significantly increased
body weights ([6]; Day 10, 200 mg/kg IP, relative to CpG stimulated, saline-treated group): increased
IFNγ levels [6, 8]: not significantly altered
IL-10 levels [6, 8]: not significantly altered
IL-12 levels ([6]; Day 10, serum, 200 mg/kg IP, relative to CpG stimulated, saline-treated group): decreased
changes in saline stimulated, RIVPA treated group ([6]; relative to saline stimulated, saline treated control): no significant changes
IFNγ levels ([6]; repeat study): no significant changes
platelet count [6, 9]: statistically significant increase
white blood cell count [6, 9]: statistically significant increase
proliferation of human normal blood cells (human normal blood cells): did not promote the proliferation
